Several values for one entry are separate records, joined by “and”; a condition that tells them apart may be missing. Equal entries are not always repeated. Where two headings read alike, the source gives them in different places.
What was measured:
[1] = for HL, Mean: transformed into the natural logarithm
Description: (§1) Blood and plasma concentration–time profiles were analyzed by standard non-compartmental methods. Individual PK parameters were tabulated and summarized.
(§2) Both drugs were measured by validated liquid extraction methods followed by ultra-performance liquid chromatography tandem mass-spectrometry detection (Dynakin, Derio, Spain).

[2] = tested on: patients with advanced solid tumors; settings: cited from earlier work
[3] = tested on: SCLC, breast, ovarian, endometrial cancer, NSCLC; settings: cited from earlier work
[4] = tested on: patients with advanced solid tumors; assay: Dose escalation and dose-limiting toxicities (phase I, 3+3 design); settings: combination q3wk; paclitaxel on D1 and D8, lurbinectedin on D1
Description: Furthermore, during dose escalation lurbinectedin was converted to a body surface area (BSA)-based dose.
The DL5 cohort was then expanded, converting lurbinectedin to a BSA-based dose of 2.2 mg/m^2 (calculated by dividing 4.0 mg FD by a BSA of 1.8 m^2).
Patient accrual began in Group A, with dose escalation following a standard 3+3 design. […] During dose escalation in Group A, lurbinectedin was converted to a body surface area (BSA)-based dose (calculated by dividing the allocated FD by a BSA of 1.8 m^2).

patients = settings: single-agent weekly paclitaxel; cited from earlier work
clinical = settings: human, in vivo
Description: as §1, §2

[5] = Cycle 1, DL1: paclitaxel 60 / lurbinectedin 3.0 mg FD, mean (SD)
[6] = Cycle 1, DL2: paclitaxel 60 / lurbinectedin 4.0 mg FD, mean (SD)
[7] = Cycle 1, DL3: paclitaxel 60 / lurbinectedin 5.0 mg FD, mean (SD)
[8] = Cycle 1, DL4 (MTD): paclitaxel 80 / lurbinectedin 5.0 mg FD, mean (SD)
[9] = Cycle 1, DL5 (RD): paclitaxel 80 / lurbinectedin 2.2 mg/m^2, mean (SD)
[10] = Cycle 1, DL5 (RD): paclitaxel 80 / lurbinectedin 4.0 mg FD, mean (SD)
[11] = Cycle 1, RD + BEV 80 / 2.2 / 15, mean (SD)
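Wherever AUC is given: blood and plasma drug levels in patients quantified by UPLC tandem mass spectrometry, with PK parameters derived by non-compartmental analysis of concentration–time profiles.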
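Wherever CL is given: blood and plasma drug levels in patients quantified by UPLC tandem mass spectrometry, with PK parameters derived by non-compartmental analysis of concentration–time profiles.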
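Wherever Cmax is given: blood and plasma drug levels in patients quantified by UPLC tandem mass spectrometry, with PK parameters derived by non-compartmental analysis of concentration–time profiles.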
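Wherever HL (terminal half-life) is given: blood and plasma drug levels in patients quantified by UPLC tandem mass spectrometry, with PK parameters derived by non-compartmental analysis of concentration–time profiles.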

COc1ccc2[nH]c3c(c2c1)CCN[C@]31CS[C@@H]2c3c(OC(C)=O)c(C)c4c(c3[C@H](COC1=O)N1[C@@H]2[C@H]2c3c(cc(C)c(OC)c3O)C[C@@H]([C@@H]1O)N2C)OCO4 [Lurbinectedin]
AUC ([1]; Cycle 1, DL1: paclitaxel 60 mg/m^2 D1,D8,D15 / lurbinectedin 3.0 mg FD, mean (SD)): 405.9 (129.6) h* μg/L | CL [1, 5]: 7.8 (2.2) L/h | Cmax [1, 5]: 97.7 (45.5) μg/L | HL (terminal half-life) [1, 5]: 52.8 (3.7) h | Vss [1, 5]: 299.4 (84.4) L | Vz [1, 5]: 602.1 (193.0) L | AUC ([1]; Cycle 1, DL2: paclitaxel 60 mg/m^2 D1,D8,D15 / lurbinectedin 4.0 mg FD, mean (SD)): 357.9 (174.2) h* μg/L | CL [1, 6]: 14.2 (9.4) L/h | Cmax [1, 6]: 74.0 (18.9) μg/L | HL (terminal half-life) [1, 6]: 82.1 (65.7) h | Vss [1, 6]: 733.7 (415.1) L | Vz [1, 6]: 1161 (563.2) L | AUC ([1]; Cycle 1, DL3: paclitaxel 60 mg/m^2 D1,D8,D15 / lurbinectedin 5.0 mg FD, mean (SD)): 714.0 (416.3) h* μg/L | CL [1, 7]: 8.8 (4.0) L/h | Cmax [1, 7]: 127.0 (74.0) μg/L | HL (terminal half-life) [1, 7]: 46.6 (15.5) h | Vss [1, 7]: 343.2 (150.1) L | Vz [1, 7]: 530.8 (164.6) L | AUC ([1]; Cycle 1, DL4 (MTD): paclitaxel 80 mg/m^2 D1,D8 / lurbinectedin 5.0 mg FD, mean (SD)): 376.2 (151.4) h* μg/L | CL [1, 8]: 15.2 (6.0) L/h | Cmax [1, 8]: 109.5 (28.4) μg/L | HL (terminal half-life) [1, 8]: 38.6 (8.3) h | Vss [1, 8]: 401.8 (99.1) L | Vz [1, 8]: 806.0 (243.4) L | AUC ([1]; Cycle 1, DL5 (RD): paclitaxel 80 mg/m^2 D1,D8 / lurbinectedin 2.2 mg/m^2, mean (SD)): 440.5 (224.4) h* μg/L | AUC ([1]; Cycle 1, DL5 (RD): paclitaxel 80 mg/m^2 D1,D8 / lurbinectedin 4.0 mg FD, mean (SD)): 436.2 (238.3) h* μg/L | CL [1, 9]: 11.1 (5.3) L/h | Cmax [1, 9]: 96.3 (34.7) μg/L | HL (terminal half-life) [1, 9]: 49.3 (22.5) h | Vss [1, 9]: 454.9 (222.6) L | Vz [1, 9]: 727.6 (346.9) L | CL [1, 10]: 12.0 (7.0) L/h | Cmax [1, 10]: 83.9 (42.5) μg/L | HL (terminal half-life) [1, 10]: 47.1 (23.0) h | Vss [1, 10]: 420.9 (182.7) L | Vz [1, 10]: 701.8 (268.9) L | CL [1, 11]: 13.8 (6.5) L/h | Cmax [1, 11]: 88.7 (28.9) μg/L | HL (terminal half-life) [1, 11]: 40.0 (15.7) h | Vss [1, 11]: 408.5 (161.7) L | Vz [1, 11]: 724.9 (340.5) L | AUC ([1]; Cycle 1, RD + BEV: paclitaxel 80 mg/m^2 / lurbinectedin 2.2 mg/m^2 / BEV 15 mg/kg, mean (SD)): 351.2 (175.9) h* μg/L | differences in PK parameters in the presence or absence of BEV ([1]; RD in Group A vs Group B, Cycle 1): No statistically significant differences | variability of total clearance (CL) ([1]; all dose levels): Wide variability | dose linearity of maximum concentration (Cmax) and AUC ([1]; dose levels 3.0–5.0 mg FD in combination with paclitaxel): No dose linearity could be established | potential drug-drug interaction: CL of each drug at the high AUC of the other drug ([1]; paclitaxel with lurbinectedin): slight decrease | HL, Mean ([1]; Cycle 1, Group A at the RD (31 patients)): 3.802 | HL, Mean ([1]; Cycle 1, Group B with BEV (12 patients)): 3.603 | recommended dose (RD), single-agent ([2]; 1-h i.v. infusion q3wk): 7.0 mg flat dose (FD) and 7 mg flat dose (FD) | median half-life ([2]; single agent at the RD (7 mg FD)): 70.6 h | response rate ([3]; monotherapy, BRCA-unselected breast cancer): 9% | response rate ([3]; monotherapy, ovarian cancer): 14–23% | response rate ([3]; monotherapy, second-line treatment of patients with SCLC): 35% | recommended dose (RD) [4]: 2.2 mg/m^2

CC(=O)O[C@H]1C(=O)[C@@]2(C)[C@H]([C@H](OC(=O)c3ccccc3)[C@]3(O)C[C@H](OC(=O)[C@H](O)[C@@H](NC(=O)c4ccccc4)c4ccccc4)C(C)=C1C3(C)C)[C@]1(OC(C)=O)CO[C@@H]1C[C@@H]2O [Paclitaxel]
potential drug-drug interaction: CL of each drug at the high AUC of the other drug ([1]; human, in vivo): slight decrease | variability of total clearance (CL) ([1]; human, in vivo): Wide variability | Cmax ([1]; human, in vivo, 2.2 mg/m2): 3004 (971.4) μg/L | CL ([1]; human, in vivo, 4 mg): 31.1 (6.2) L/h | Cmax ([1]; human, in vivo, 4 mg): 2908 (482.2) μg/L | Vss ([1]; human, in vivo, 4 mg): 315.3 (89.7) L | Vz ([1]; human, in vivo, 4 mg): 639.9 (128.6) L | CL ([1]; human, in vivo, 5 mg): 30.2 (8.6) L/h | Cmax ([1]; human, in vivo, 5 mg): 3122 (1420) μg/L | Vss ([1]; human, in vivo, 5 mg): 323.2 (266.8) L | Vz ([1]; human, in vivo, 5 mg): 627.5 (185.2) L | response rate ([3]; single-agent weekly 80 mg/m^2/week, metastatic breast cancer): 22–42% | response rate ([3]; single-agent weekly 80 mg/m^2/week, relapsed ovarian cancer): 21–60% | response rate ([3]; single-agent weekly 80 mg/m^2/week, relapsed/refractory SCLC): 20–27% | incidence of peripheral neuropathy, grade 3/4 (patients): 3–21% | clearance (clinical; 2.2 mg/m2, CL): 525 mL/min | Vd (clinical; 2.2 mg/m2, Vss): 324 L | Vd (clinical; 2.2 mg/m2, Vz): 662 L | clearance (clinical; 3 mg, CL): 437 mL/min | Cmax (clinical; 3 mg): 2370 ng/mL | Vd (clinical; 3 mg, Vss): 315 L | Vd (clinical; 3 mg, Vz): 689 L | half-life (clinical; 4 mg): 29.2 h | clearance (clinical; 4 mg, CL): 487 mL/min | Cmax (clinical; 4 mg): 1500 ng/mL | Vd (clinical; 4 mg, Vss): 577 L | Vd (clinical; 4 mg, Vz): 934 L | clearance (clinical; 5 mg, CL): 575 mL/min | Cmax (clinical; 5 mg): 1980 ng/mL | Vd (clinical; 5 mg, Vss): 430 L | Vd (clinical; 5 mg, Vz): 858 L

Bevacizumab
improvement in ORR with the addition of BEV to chemotherapy vs. chemotherapy alone ([3]; recurrent ovarian cancer and previously untreated NSCLC): 15–20%

— article PMC9652263 (Investigational New Drugs, 2022)
